Test results taken from paper PMC3478134 (Cancer cell, 2012).
One block for each compound: values may come before it.

How the values were obtained:
MM cell lines = test: MM cell line viability; format: cell-based, human
USP7 [1] = target: T1, USP7 (Homo sapiens, UniProt Q93009); test: Ub-PLA2 isopeptidase reporter assay, USP7; format: biochemical; conditions: for USP7 inhibitory activity (SAR): Fig 1C/1D
[2] = tested on: purified patient MM cells; test: Purified patient MM cell viability; format: cell-based, human; conditions: 8 MM patients, 48 hr
HCT116 p21^−/− cells = conditions: 48 hr, versus HCT116 (WT)
[3] = tested on: HCT116 p53 (WT) and HCT116 p53^−/− cells; test: Viability, HCT116 p53; format: cell-based, human; conditions: 72 hr
UCHL3 = UCHL3 (Homo sapiens, UniProt P15374); test: DUB inhibition in cells; format: cell-based; conditions: Fig S1A
Chain of UCHL3 (P15374 whole entry): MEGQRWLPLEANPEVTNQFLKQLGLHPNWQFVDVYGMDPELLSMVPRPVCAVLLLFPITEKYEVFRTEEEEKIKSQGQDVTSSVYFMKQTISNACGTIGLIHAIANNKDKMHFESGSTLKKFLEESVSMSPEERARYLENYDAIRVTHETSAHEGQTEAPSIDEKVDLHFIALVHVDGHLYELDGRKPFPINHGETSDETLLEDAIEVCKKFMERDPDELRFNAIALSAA

ANBL-6.BR cells = test: Cell viability, ANBL-6.BR; format: cell-based
MM.1S cells [4] = test: Viability of scr- or p53-siRNA transfected MM.1S cells; format: cell-based, human; conditions: 48 hr
MM.1S cells [5] = test: Viability of scr- or p21-siRNA transfected MM.1S cells; format: cell-based, human; conditions: 48 hr
MM.1S cells [6] = test: Viability of scr- or HDM2-siRNA transfected MM.1S cells; format: cell-based, human; conditions: 24 hr
HCT116 USP7^−/− cells = test: MTT viability, HCT116 USP7^−/−; format: cell-based, human; conditions: HCT116 USP7^−/− versus WT
CCRF-CEM leukemic tumors = test: CCRF-CEM leukemic xenograft; conditions: 10 mg/kg twice weekly for 3 weeks
USP7 [7] = target: T1, USP7; test: HA-UbVME active site probe competition, HEK293T cells; format: cell-based; conditions: lysates from treated HEK293T cells; concentrations as low as
MM.1S MM tumors = test: Human MM.1S plasmacytoma xenograft
USP7 [8] = target: T1, USP7; test: Cellular USP7 activity in MM.1S cells, Ub-EKL assay after immunoprecipitation; format: cell-based; conditions: 3 hr, concentration-dependent
MM cells = test: Apoptosis; format: cell-based, human; conditions: Fig S3E
HCT116 (WT) cells = test: MTT viability, HCT116; format: cell-based, human; conditions: 24, 48, 72 hr
p53^−/−/MDM2^−/− MEFs = test: Viability, p53^−/−/MDM2^−/− MEFs; format: cell-based, mouse; conditions: 48 hr
USP7 [9] = target: T1, USP7; test: Ubiquitin-linked K48 chain cleavage assay, USP7; format: biochemical; conditions: Ub7 and K48-linked chains
ARP-1 MM cells = test: Viability, p53-null ARP-1 MM cells; format: cell-based, human; conditions: p53-null ARP-1, 48 hr
USP5 = USP5 (Homo sapiens, UniProt P45974); test: DUB inhibition in cells; format: cell-based; conditions: Fig S1A
Chain of USP5 (P45974 whole entry): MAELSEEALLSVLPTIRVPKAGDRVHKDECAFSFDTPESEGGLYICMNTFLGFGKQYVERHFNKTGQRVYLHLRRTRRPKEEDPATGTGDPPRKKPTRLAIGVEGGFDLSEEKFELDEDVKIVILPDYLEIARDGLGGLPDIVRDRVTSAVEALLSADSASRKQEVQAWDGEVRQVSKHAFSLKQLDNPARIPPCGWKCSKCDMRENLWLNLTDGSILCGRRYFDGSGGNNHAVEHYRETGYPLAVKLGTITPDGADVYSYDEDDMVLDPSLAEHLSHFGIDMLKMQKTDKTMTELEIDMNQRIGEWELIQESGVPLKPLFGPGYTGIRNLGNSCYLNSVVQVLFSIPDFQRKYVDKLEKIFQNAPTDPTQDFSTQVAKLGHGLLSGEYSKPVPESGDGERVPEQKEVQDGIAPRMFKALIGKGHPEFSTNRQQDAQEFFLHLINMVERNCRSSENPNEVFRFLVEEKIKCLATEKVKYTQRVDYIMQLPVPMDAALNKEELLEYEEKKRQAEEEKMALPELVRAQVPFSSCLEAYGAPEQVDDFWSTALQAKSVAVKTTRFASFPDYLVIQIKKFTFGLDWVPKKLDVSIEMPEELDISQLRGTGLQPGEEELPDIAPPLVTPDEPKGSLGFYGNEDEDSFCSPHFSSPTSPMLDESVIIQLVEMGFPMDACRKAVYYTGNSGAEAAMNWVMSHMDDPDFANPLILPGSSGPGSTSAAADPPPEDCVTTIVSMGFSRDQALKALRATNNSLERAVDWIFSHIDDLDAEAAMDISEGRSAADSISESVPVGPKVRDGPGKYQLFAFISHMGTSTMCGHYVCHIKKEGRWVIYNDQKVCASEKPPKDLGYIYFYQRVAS

U2OS cells = test: IC50 in U2OS cells; format: cell-based
INA-6 MM tumors = test: SCID-hu model, INA-6 MM tumors, serum shIL-6R; format: in vivo, mice; conditions: 10 mg/kg
[10] = Tolerability in tumor-bearing mice; conditions: twice-weekly schedule
[11] = mouse, in vivo
UCHL1 = UCHL1 (Homo sapiens, UniProt P09936); test: DUB inhibition in cells; format: cell-based; conditions: Fig S1A
Chain of UCHL1 (P09936 whole entry): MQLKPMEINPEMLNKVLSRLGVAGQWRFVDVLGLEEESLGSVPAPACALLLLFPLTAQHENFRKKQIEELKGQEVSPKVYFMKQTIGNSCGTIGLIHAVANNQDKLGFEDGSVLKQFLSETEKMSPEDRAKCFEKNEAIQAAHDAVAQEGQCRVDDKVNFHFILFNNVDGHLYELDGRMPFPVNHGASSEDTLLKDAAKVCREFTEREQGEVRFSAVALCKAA

other DUBs = test: HA-UbVME probe labeling of other DUBs, HEK293T cells; format: cell-based; conditions: even at 40 μM
ARP-1 MM tumors = test: Human p53-null ARP-1 MM xenograft
HDM2 = HDM2 ubiquitylation; format: cell-based; conditions: U2OS
proteasome = test: Proteasome activity in MM.1S cells; format: cell-based, human; conditions: for Chymotrypsin-like (CT-L) proteasome activity: MM.1S cells, 3 hr
[12] = tested on: other DUBs or other families of cysteine proteases; test: Ub-PLA2 / protease panel, selectivity; format: biochemical; conditions: read-out: EC50, other DUBs or other families of cysteine proteases; Fig 1D
ANBL-6.WT cells = test: Cell viability, ANBL-6.WT; format: cell-based
[13] = tested on: MM.1S cells cultured with BMSCs; test: MM.1S proliferation with BMSCs, 3H-TdR uptake; format: cell-based, human; conditions: 72 hr
HDM2, HDMX, p53, p21 = test: Immunoblot of HDM2/HDMX/p53/p21 in MM.1S and RPMI-8226 cells; format: cell-based, human; conditions: 6.25 and 12.5 μM, 24 hr
p53^−/− MEFs = test: Viability, p53^−/− MEFs; format: cell-based, mouse; conditions: 48 hr
[14] = tested on: MM cells from bortezomib-resistant patients; test: Viability of MM cells from bortezomib-resistant patients; format: cell-based, human; conditions: 12.5 nM, 48 hr, in 3 of 6 samples
[15] = 10 mg/kg IV twice weekly for 3 weeks

T1 sequence (Q93009 whole entry): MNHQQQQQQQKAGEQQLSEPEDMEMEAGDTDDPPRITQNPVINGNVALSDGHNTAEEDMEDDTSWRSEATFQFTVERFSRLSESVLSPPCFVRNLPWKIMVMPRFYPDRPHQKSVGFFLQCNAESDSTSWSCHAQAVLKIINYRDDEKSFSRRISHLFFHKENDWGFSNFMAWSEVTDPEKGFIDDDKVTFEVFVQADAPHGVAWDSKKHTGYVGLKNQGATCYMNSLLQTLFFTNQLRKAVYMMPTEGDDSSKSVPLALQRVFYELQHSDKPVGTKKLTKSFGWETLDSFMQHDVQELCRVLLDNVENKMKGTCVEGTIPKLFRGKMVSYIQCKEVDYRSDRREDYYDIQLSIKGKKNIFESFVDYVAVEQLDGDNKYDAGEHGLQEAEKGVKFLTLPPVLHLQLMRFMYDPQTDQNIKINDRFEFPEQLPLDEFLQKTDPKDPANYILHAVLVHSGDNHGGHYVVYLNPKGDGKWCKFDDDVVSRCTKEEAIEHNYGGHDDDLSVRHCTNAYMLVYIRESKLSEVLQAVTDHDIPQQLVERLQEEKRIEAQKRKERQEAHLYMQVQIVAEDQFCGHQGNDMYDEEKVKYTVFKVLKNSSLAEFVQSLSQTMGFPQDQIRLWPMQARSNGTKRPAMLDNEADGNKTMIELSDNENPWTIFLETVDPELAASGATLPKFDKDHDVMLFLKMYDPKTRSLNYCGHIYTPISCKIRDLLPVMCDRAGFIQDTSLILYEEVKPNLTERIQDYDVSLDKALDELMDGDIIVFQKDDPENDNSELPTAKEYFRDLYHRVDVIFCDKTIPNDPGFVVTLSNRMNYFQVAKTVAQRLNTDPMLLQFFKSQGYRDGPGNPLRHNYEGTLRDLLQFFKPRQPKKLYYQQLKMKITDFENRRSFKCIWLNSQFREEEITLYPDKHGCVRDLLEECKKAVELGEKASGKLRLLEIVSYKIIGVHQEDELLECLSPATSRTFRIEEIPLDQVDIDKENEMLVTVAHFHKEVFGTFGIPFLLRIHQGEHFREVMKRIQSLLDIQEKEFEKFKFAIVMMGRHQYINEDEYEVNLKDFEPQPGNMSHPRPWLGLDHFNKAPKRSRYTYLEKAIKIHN

- USP7 inhibitory activity (SAR) (USP7 [1]): inactive
- USP7 inhibitory activity (SAR) (USP7 [1]; listed as 1): not active
Structure (SMILES): CC(=O)c1cc([N+](=O)[O-])c(Sc2ccccc2)s1 [P22074]
- Effect on viability of MM cell lines (MM cell lines): no significant effect

Structure (SMILES): CC(=O)c1cc([N+](=O)[O-])c(Sc2cccc(Cl)c2Cl)s1 [P5091]
- Viability of patient MM cells [2]: dose-dependent decrease in the viability
- Cytotoxicity in HCT116 p21^−/− cells (HCT116 p21^−/− cells): significantly blocked
- Cytotoxicity in HCT116 p53 (WT) versus HCT116 p53^−/− [3]: equipotent cytotoxicity in both cell types
- Inhibition of UCHL3 (UCHL3): did not inhibit
- IC50 (ANBL-6.BR cells; ANBL-6.BR, 48 hr): 9.85 µM
- IC50 ratio (ANBL-6.BR/ANBL-6.WT) (ANBL-6.BR cells; p < 0.001): significantly less than bortezomib
- Effect of p53 depletion by siRNA on drug-induced decrease in viability (MM.1S cells [4]): does not affect
- Effect of p21 silencing with siRNA on cytotoxicity (MM.1S cells [5]): attenuates P5091-induced cytotoxicity
- Percentage of viable cells (MM.1S cells [6]; HDM2-siRNA, P5091 6.25 μM): 73.3%
- Percentage of viable cells (MM.1S cells [6]; HDM2-siRNA, P5091 12.5 μM): 19.2%
- Percentage of viable cells (MM.1S cells [6]; scr-siRNA, P5091 6.25 μM): 47.2%
- Percentage of viable cells (MM.1S cells [6]; scr-siRNA, P5091 12.5 μM): 8.6%
- Cytotoxic activity (HCT116 USP7^−/− cells): marked reduction in P5091 cytotoxic activity
- Survival (CCRF-CEM leukemic tumors): prolongs survival
- Tumor growth (CCRF-CEM leukemic tumors): inhibits leukemic tumor growth
- Concentration inhibiting Ub-USP7 conjugate formation (HA-UbVME labeling) (USP7 [7]): 5 to 10 µM
- Survival (MM.1S MM tumors; [15]): prolongs survival
- Tumor growth (MM.1S MM tumors; [15]): inhibits MM tumor growth
- Proliferation in harvested tumors (MM.1S MM tumors; BrdU and Ki67 staining): decreases proliferation
- Apoptotic tumor cells (MM.1S MM tumors; cleaved caspase-3, TUNEL, versus vehicle): increases the number of cleaved-caspase-3-, and TUNEL-positive apoptotic tumor cells
- Angiogenesis markers in tumors (MM.1S MM tumors; immunostaining VEGFR2, PECAM1): decreases the number of VEGFR2- and PECAM1-positive cells
- USP7 activity in harvested tumors (MM.1S MM tumors; relative to control mice): inhibited USP7 activity
- Inhibition of USP7 activity (USP7 [8]): > 50%
- Apoptosis (Annexin V/PI) (MM cells): accumulation of cells in early (Ann V^+/PI^−) and late stage (Ann V^+/PI^+) apoptosis
- Cell viability (HCT116 (WT) cells): decreased the viability
- IC50 (p53^−/−/MDM2^−/− MEFs): 20.9 µM
- USP7-mediated cleavage of poly ubiquitin chains (USP7 [9]): inhibited in a dose-dependent manner
- Cell viability (ARP-1 MM cells): decreases the viability
- Inhibition of USP5 (USP5): did not inhibit
- IC50 (U2OS cells): 15 µM
- Tumor growth (serum shIL-6R) (INA-6 MM tumors): inhibited tumor growth
- MTD dose [10]: 20 mg/kg
- Blood chemistry profile [11]: normal levels of bilirubin, hemoglobin, and creatinine
- Weight loss [11]: no significant weight loss
- EC50 (USP7 [1]; read-out: EC50, deubiquitylating activity against USP7, Ub-PLA2 reporter assay): 4.2 ± 0.9 µM
- Inhibition of UCHL1 (UCHL1): did not inhibit
- Labeling of other DUBs with Ub-VME (other DUBs): No gross difference
- Survival (ARP-1 MM tumors; [15]): prolongs survival
- Tumor growth (ARP-1 MM tumors; [15]): inhibits MM tumor growth
- USP7 activity in tumors (ARP-1 MM tumors; compared with control mice, at 3 hr): marked inhibition of USP7 activity
- HDM2 degradation (HDM2; 15 μM, versus CHX alone): accelerates the degradation of HDM2
- HDM2 ubiquitination (HDM2; HA-Ub transfected, 30 μM, 4 hr): markedly increases HDM2 ubiquitination
- Caspase-like (C-L) proteasome activity (proteasome; 25–50 μM): no effect
- Trypsin-like (T-L) proteasome activity (proteasome; 25–50 μM): no effect
- Chymotrypsin-like (CT-L) proteasome activity (proteasome): no significant inhibition
- EC50 [12]: > 100 µM
- IC50 (ANBL-6.WT cells; ANBL-6.WT, 48 hr): 6.83 µM
- BMSCs-induced proliferation of MM.1S [13]: inhibited BMSCs-induced proliferation
- HDM2, HDMX, p53 and p21 protein levels (HDM2, HDMX, p53, p21): decreased HDM2 and HDMX, as well as upregulated p53 and p21 levels
- IC50 (p53^−/− MEFs): 7.72 µM

Structure (SMILES): CC(C)C[C@H](NC(=O)[C@H](Cc1ccccc1)NC(=O)c1cnccn1)B(O)O [bortezomib, reference compound]
- IC50 (ANBL-6.BR cells; 48 h): 0.0121 µM
- Chymotrypsin-like (CT-L) proteasome activity (proteasome): blocks
- IC50 (ANBL-6.WT cells; 48 h): 0.00232 µM
- Decrease in viability [14]: 10%–50%
